# Source: patent publication US20230118577A1, “NEUROACTIVE STEROIDS AND PHARMACEUTICAL COMPOSITION CONTAINING THE SAME” (Brii Biosciences, Inc., priority 2020, published 2023)
# Key:
# GABAA α4β3δ = biological target: T1, GABAA α4β3δ (Homo sapiens, UniProt P28472+P48169); assay: Automated patch clamp electrophysiology (SyncroPatch), PAM mode, GABAA α4β3δ cell line; format: cell-based; settings: PAM mode, GABA EC20 10 μM; for EC50: HEK293 cells expressing human GABAA α4β3δ, read-out: GABAA α4β3δ PAM EC50; for Emax: maximum fold increase in current relative to Allopregnanolone, read-out: GABAA α4β3δ PAM % Emax (to Allo)
# T1 construct: expressed in transfected cells; host or cells: HEK293 expressing the Tetracycline repressor protein
# T1 sequence (P48169 36-554): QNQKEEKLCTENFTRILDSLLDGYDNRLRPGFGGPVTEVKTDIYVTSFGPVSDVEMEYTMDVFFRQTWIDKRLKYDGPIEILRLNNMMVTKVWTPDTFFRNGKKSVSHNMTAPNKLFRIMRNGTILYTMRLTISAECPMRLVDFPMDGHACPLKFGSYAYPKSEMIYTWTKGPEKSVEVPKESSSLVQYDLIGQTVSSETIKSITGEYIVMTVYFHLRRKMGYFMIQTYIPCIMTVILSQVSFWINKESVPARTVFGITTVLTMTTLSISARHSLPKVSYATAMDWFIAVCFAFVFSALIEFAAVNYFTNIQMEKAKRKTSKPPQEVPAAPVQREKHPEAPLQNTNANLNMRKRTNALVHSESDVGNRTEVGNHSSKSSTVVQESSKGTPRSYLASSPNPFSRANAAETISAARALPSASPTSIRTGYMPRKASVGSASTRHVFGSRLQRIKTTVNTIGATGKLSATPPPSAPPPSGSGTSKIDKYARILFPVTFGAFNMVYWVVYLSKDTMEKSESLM
# T1 sequence (P28472 26-473): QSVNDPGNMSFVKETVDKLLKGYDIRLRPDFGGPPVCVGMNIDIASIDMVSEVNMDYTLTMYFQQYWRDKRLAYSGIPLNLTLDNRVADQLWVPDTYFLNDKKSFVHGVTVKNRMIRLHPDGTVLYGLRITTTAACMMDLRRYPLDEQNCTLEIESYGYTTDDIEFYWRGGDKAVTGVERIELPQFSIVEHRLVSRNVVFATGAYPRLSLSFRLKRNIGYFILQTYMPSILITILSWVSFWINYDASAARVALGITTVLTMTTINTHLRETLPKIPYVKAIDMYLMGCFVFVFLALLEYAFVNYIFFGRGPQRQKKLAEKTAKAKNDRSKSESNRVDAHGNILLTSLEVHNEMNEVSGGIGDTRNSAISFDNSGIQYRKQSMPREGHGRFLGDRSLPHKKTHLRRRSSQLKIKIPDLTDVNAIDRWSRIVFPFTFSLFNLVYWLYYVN
# T1 sequence (O14764 17-452 partner limits assumed): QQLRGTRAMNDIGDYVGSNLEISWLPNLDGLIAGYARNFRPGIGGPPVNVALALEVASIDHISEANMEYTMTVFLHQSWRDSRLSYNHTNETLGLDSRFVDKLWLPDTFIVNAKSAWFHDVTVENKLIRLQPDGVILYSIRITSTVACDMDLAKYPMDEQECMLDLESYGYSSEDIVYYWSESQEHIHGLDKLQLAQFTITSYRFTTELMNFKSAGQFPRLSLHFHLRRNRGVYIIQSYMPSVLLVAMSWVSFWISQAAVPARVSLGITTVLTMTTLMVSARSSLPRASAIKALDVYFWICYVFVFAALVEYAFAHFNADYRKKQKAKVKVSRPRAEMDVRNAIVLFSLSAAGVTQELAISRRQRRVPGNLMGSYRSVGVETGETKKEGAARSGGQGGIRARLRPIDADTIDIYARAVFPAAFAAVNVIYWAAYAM
# From the text: (§1) Cellular electrophysiology was used to measure the pharmacology properties of the GABA receptor modulators. The GABAA channels are expressed in stable cell lines described herein. The parental cell line used to express the human GABAA channels is the human embryonic kidney (HEK293) cell line expressing the Tetracycline repressor protein to support inducible expression of the target proteins.
# (§2) For the GABAA α4β3δ cell line, the α4 and β3 subunits are under control of tetracycline inducible expression system, while the δ subunit is constitutively expressed. For the GABAA α1β2γ2 cell line, the α1 and β2 subunits are under control of tetracycline inducible expression system, whist the γ2 subunit is constitutively expressed.
# (§3) Assessment of the compounds against GABAA α1β2γ2 and GABAA α4β3δ was performed using the SyncroPatch automated platform in positive allosteric modulator (PAM) mode. Six concentrations of 20 nM, 62 nM, 185 nM, 555 nM, 1667 nM and 5000 nM were tested across the plate, with a single concentration of compound per well. A minimum of 3 cells were obtained per each concentration of a compound.
# (§4) Automated patch clamp-recordings were performed using the SyncroPatch 384PE. The voltage protocol generation and data collection were performed with PatchController384 V1.6.6 and Data Controller V1.6.0. A steady state voltage pulse at −80 mV was applied during the assay.
# (§5) The stacked addition protocol was used, in which γ-aminobutyric acid (GABA) was rapidly applied and then washed off from the cell. To test for positive allosteric modulator activity (PAM), first the agonist GABA EC20 (EC20: 10 μM for GABAA α4β3δ channel and 14 μM GABA for the GABAA α1β2γ2 channel) was applied twice (with wash steps in-between) as a control and to show activation reproducibility, followed by a 1-2 minutes pre-incubation of the tested compound and then re-application of GABA EC20 in the presence of a testing compound. Finally, following a further wash step, maximum GABA (10 mM) was applied.
# (§6) An Allopregnanolone concentration response was tested as the control PAM on the compound plates. The fold increase was generated using the following equation, (Icomp/Icontrol)−1, where Icomp is the current amplitude in the presence of the compound and Icontrol is the current amplitude in the presence of GABA EC20 alone. This builds an EC50 concentration-response curve, where 0 represents no PAM activity and >0 represents PAM activity.
# (§7) A maximum % Emax for each compound is generated using the following equation, (IMaxComp/IAveMaxAllo)*100, where IMaxcomp is the individual maximum fold increase in current for each compound and IAveMaxAllo is the average maximum fold increase generated in the presence of Allopregnanolone. The resultant % Emax values are then averaged. The compound and Allopregnanolone values were obtained from separate cells which were tested in the same compound run. Two GABAA subtypes were tested against each of the compounds as well as the positive control, Allopregnanolone.
# GABAA α1β2γ2 = biological target: T2, GABAA α1β2γ2 (Homo sapiens, UniProt P14867+P47870); assay: Automated patch clamp electrophysiology (SyncroPatch), PAM mode, GABAA α1β2γ2 cell line; format: cell-based; settings: PAM mode; for EC50: HEK293 cells expressing human GABAA α1β2γ2, GABA EC20 14 μM, read-out: GABAA α1β2γ2 PAM EC50; for Emax: maximum fold increase in current relative to Allopregnanolone, GABA EC20 14 μM, read-out: GABAA α1β2γ2 PAM % Emax (to Allo)
# T2 construct: expressed in transfected cells; host or cells: HEK293 expressing the Tetracycline repressor protein
# T2 sequence (P14867 28-456): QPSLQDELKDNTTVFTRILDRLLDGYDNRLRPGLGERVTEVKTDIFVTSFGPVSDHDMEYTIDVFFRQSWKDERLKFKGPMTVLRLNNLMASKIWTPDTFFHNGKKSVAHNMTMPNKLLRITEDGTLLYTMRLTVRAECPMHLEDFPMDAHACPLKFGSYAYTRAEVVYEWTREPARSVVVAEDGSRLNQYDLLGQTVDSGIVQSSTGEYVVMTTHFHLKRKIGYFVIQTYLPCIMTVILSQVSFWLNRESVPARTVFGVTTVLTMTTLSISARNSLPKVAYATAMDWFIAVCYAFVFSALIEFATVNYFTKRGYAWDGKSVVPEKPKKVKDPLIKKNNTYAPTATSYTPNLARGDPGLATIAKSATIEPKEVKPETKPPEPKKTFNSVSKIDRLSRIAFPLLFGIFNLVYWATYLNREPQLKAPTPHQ
# T2 sequence (P47870 25-512 limits assumed): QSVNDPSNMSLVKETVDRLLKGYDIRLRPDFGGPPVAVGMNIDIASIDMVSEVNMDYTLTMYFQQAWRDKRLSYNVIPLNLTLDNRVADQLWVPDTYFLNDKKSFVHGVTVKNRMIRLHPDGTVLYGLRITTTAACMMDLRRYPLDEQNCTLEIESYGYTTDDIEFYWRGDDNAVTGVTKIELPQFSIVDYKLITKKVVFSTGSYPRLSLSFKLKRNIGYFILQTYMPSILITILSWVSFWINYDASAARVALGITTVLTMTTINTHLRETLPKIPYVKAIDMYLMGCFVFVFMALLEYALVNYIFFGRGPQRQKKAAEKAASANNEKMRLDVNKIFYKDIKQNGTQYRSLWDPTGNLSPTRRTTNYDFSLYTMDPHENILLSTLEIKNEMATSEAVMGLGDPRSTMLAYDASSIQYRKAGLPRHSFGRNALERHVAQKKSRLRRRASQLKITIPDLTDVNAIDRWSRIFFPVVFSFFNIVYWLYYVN
# T2 sequence (P18507 40-475 partner): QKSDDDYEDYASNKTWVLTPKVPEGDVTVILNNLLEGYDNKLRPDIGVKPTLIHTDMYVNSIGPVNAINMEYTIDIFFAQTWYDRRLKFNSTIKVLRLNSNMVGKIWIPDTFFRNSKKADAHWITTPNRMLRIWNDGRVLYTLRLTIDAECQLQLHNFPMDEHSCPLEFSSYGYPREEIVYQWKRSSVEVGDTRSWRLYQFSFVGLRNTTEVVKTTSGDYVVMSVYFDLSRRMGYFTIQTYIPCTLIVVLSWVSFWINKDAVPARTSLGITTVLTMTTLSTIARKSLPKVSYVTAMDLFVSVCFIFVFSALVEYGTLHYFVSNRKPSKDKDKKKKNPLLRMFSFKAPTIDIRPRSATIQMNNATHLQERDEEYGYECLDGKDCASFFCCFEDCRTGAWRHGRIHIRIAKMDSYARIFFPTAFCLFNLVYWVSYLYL
# From the text: as §1, §2, §3, §4, §5, §6, §7
SMILES,EC50 (GABAA α4β3δ) [nM],Emax (GABAA α4β3δ) [%],EC50 (GABAA α1β2γ2) [nM],Emax (GABAA α1β2γ2) [%]
"CC1([C@H]2CC[C@H]3[C@@H]4CC[C@H]5C[C@](C)(O)CC[C@]5(C)[C@H]4CC[C@]23C)COC1 [Example 1, (3R,5S,8R,9S,10S,13S,14S,17S)-3,10,13-trimethyl-17-(3-methyloxetan-3-yl)-1,2,4,5,6,7,8,9,11,12,14,15,16,17-tetradecahydrocyclopenta[a]phenanthren-3-ol]",> 1500,< 50,500 to 1000,< 50
"CC1([C@H]2CC[C@H]3[C@@H]4CC[C@@H]5C[C@](C)(O)CC[C@@H]5[C@H]4CC[C@]23C)COC1 [Example 2, (3R,5R,8R,9R,10S,13S,14S,17S)-3,13-dimethyl-17-(3-methyloxetan-3-yl)-2,4,5,6,7,8,9,10,11,12,14,15,16,17-tetradecahydro-1H-cyclopenta[a]phenanthren-3-ol]",< 500,> 90,1000 to 1500,> 90
"CC1([C@H]2CC[C@H]3[C@@H]4CC[C@H]5C[C@H](O)CC[C@]5(C)[C@H]4CC[C@]23C)CCO1 (stereo partly drawn) [Example 3, (3R,5S,8R,9S,10S,13S,14S,17S)-10,13-dimethyl-17-(2-methyloxetan-2-yl)-2,3,4,5,6,7,8,9,11,12,14,15,16,17-tetradecahydro-1H-cyclopenta[a]phenanthren-3-ol]",1000 to 1500,< 50,1000 to 1500,< 50
"CC1([C@H]2CC[C@H]3[C@@H]4CC[C@H]5C[C@H](O)CC[C@]5(C)[C@H]4CC[C@]23C)COC1 [Example 5, (3R,5S,8R,9S,10S,13S,14S,17S)-10,13-dimethyl-17-(3-methyloxetan-3-yl)-2,3,4,5,6,7,8,9,11,12,14,15,16,17-tetradecahydro-1H-cyclopenta[a]phenanthren-3-ol]",> 1500,< 50,500 to 1000,50 to 90
"CC1([C@H]2CC[C@H]3[C@@H]4CC[C@@H]5C[C@H](O)CC[C@]5(C)[C@H]4CC[C@]23C)COC1 [Example 6, (3R,5R,8R,9S,10S,13S,14S,17S)-10,13-dimethyl-17-(3-methyloxetan-3-yl)-2,3,4,5,6,7,8,9,11,12,14,15,16,17-tetradecahydro-1H-cyclopenta[a]phenanthren-3-ol]",1000 to 1500,> 90,< 500,> 90
"CC1([C@H]2CC[C@H]3[C@@H]4CC[C@@H]5C[C@](C)(O)CC[C@@H]5[C@H]4CC[C@]23C)CCOC1 (stereo partly drawn) [Example 7, (3R,5R,8R,9R,10S,13S,14S,17S)-3,13-dimethyl-17-(3-methyltetrahydrofuran-3-yl)-2,4,5,6,7,8,9,10,11,12,14,15,16,17-tetradecahydro-1H-cyclopenta[a]phenanthren-3-ol]",500 to 1000,> 90,500 to 1000,> 90
"C[C@@]1(O)CC[C@H]2[C@H](CC[C@@H]3[C@@H]2CC[C@]2(C)[C@@H](C4(CC5CC5)COC4)CC[C@@H]32)C1 [Example 9, (3R,5R,8R,9R,10S,13S,14S,17S)-17-[3-(cyclopropylmethyl)oxetan-3-yl]-3,13-dimethyl-2,4,5,6,7,8,9,10,11,12,14,15,16,17-tetradecahydro-1H-cyclopenta[a]phenanthren-3-ol]",> 1500,> 90,< 500,50 to 90
"C[C@@]1(O)CC[C@H]2[C@H](CC[C@@H]3[C@@H]2CC[C@]2(C)[C@@H](C4(F)COC4)CC[C@@H]32)C1 [Example 10, (3R,5R,8R,9R,10S,13S,14S,17S)-17-(3-fluorooxetan-3-yl)-3,13-dimethyl-2,4,5,6,7,8,9,10,11,12,14,15,16,17-tetradecahydro-1H-cyclopenta[a]phenanthren-3-ol]",< 500,> 90,< 500,> 90
"C[C@@]1(O)CC[C@H]2[C@H](CC[C@@H]3[C@@H]2CC[C@]2(C)[C@@H](C4(CC#N)COC4)CC[C@@H]32)C1 [Example 13, 2-[3-[(3R,5R,8R,9R,10S,13S,14S,17S)-3-hydroxy-3,13-dimethyl-2,4,5,6,7,8,9,10,11,12,14,15,16,17-tetradecahydro-1H-cyclopenta[a]phenanthren-17-yl]oxetan-3-yl]acetonitrile]",1000 to 1500,< 50,1000 to 1500,> 90
"C[C@@]1(O)CC[C@H]2[C@H](CC[C@@H]3[C@@H]2CC[C@]2(C)[C@@H](C4(CF)COC4)CC[C@@H]32)C1 [Example 14, (3R,5R,8R,9R,10S,13S,14S,17S)-17-[3-(fluoromethyl)oxetan-3-yl]-3,13-dimethyl-2,4,5,6,7,8,9,10,11,12,14,15,16,17-tetradecahydro-1H-cyclopenta[a]phenanthren-3-ol]",500 to 1000,50 to 90,1000 to 1500,> 90
"C[C@@]1(O)CC[C@H]2[C@H](CC[C@@H]3[C@@H]2CC[C@]2(C)[C@@H](C4(Cn5cc(C#N)cn5)COC4)CC[C@@H]32)C1 [Example 15, 1-[[3-[(3R,5R,8R,9R,10S,13S,14S,17S)-3-hydroxy-3,13-dimethyl-2,4,5,6,7,8,9,10,11,12,14,15,16,17-tetradecahydro-1H-cyclopenta[a]phenanthren-17-yl]oxetan-3-yl]methyl]pyrazole-4-carbonitrile]",> 1500,> 90,< 500,> 90
"C[C@@]1(O)CC[C@H]2[C@H](CC[C@@H]3[C@@H]2CC[C@]2(C)[C@@H](C4(C#N)COC4)CC[C@@H]32)C1 [Example 18, 3-((3R,5R,8R,9R,10S,13S,14S,17S)-3-hydroxy-3,13-dimethyl-2,4,5,6,7,8,9,10,11,12,14,15,16,17-tetradecahydro-1H-cyclopenta[a]phenanthren-17-yl)oxetane-3-carbonitrile]",< 500,50 to 90,< 500,> 90
"C[C@@]1(O)CC[C@H]2[C@H](CC[C@@H]3[C@@H]2CC[C@]2(C)[C@@H](C4(C(F)F)COC4)CC[C@@H]32)C1 [Example 19, (3R,5R,8R,9R,10S,13S,14S,17S)-17-[3-(difluoromethyl)oxetan-3-yl]-3,13-dimethyl-2,4,5,6,7,8,9,10,11,12,14,15,16,17-tetradecahydro-1H-cyclopenta[a]phenanthren-3-ol]",< 500,> 90,< 500,> 90
"C[C@@]1(O)CC[C@H]2[C@H](CC[C@@H]3[C@@H]2CC[C@]2(C)[C@@H](C4(CC(F)(F)F)COC4)CC[C@@H]32)C1 [Example 20, (3R,5R,8R,9R,10S,13S,14S,17S)-3,13-dimethyl-17-(3-(2,2,2-trifluoroethyl)oxetan-3-yl)-2,4,5,6,7,8,9,10,11,12,14,15,16,17-tetradecahydro-1H-cyclopenta[a]phenanthren-3-ol]",< 500,> 90,< 500,> 90
"C[C@@]1(O)CC[C@H]2[C@H](CC[C@@H]3[C@@H]2CC[C@]2(C)[C@@H](C4(C5CC5)COC4)CC[C@@H]32)C1 [Example 21, (3R,5R,8R,9R,10S,13S,14S,17S)-17-(3-cyclopropyloxetan-3-yl)-3,13-dimethyl-2,4,5,6,7,8,9,10,11,12,14,15,16,17-tetradecahydro-1H-cyclopenta[a]phenanthren-3-ol]",> 1500,> 90,500 to 1000,> 90
